Like-named read-outs stand apart in the source and are kept apart here.
Assays:
[1] = test system: BaF3 parental cells; assay: In vitro cell proliferation, BaF3 parental line + IL3 (CellTiter-Glo); type: cell-based, murine
[2] = test system: MM1.S (multiple myeloma) cells; assay: In vitro cell proliferation, MM1.S multiple myeloma cells (CellTiter-Glo, ATP); type: cell-based; settings: read-out: Prolif MM1S ATP (EC50)
Method: BaF3, a murine interleukin-3 dependent pro-B cell line, parental cells, BaF3 PIM1 cells, BaF3 PIM2 cells, and MM1.S (multiple myeloma) cells were seeded at 2 k/well, 5 k/well, 5 k/well, and 10 k/well respectively, in a 384-well plate, at 45 μL/well. Test compound was added at 5 μL/well. BaF3 cells (parental and transfected) were incubated overnight, while MM1.S cells were incubated for 72 hours at 37° C., 5% CO2. […] IC50/EC50 values for the test compound were calculated.

[3] = target: PIM1 (Homo sapiens (Human), UniProt P11309); assay: Pim kinase inhibition, PIM1 LC3K (Example 901); type: biochemical
Description: Determination of the Pim kinase activity of a Formula I compound is possible by a number of direct and indirect detection methods.

[4] = Mus musculus, BaF3, BaF3 parental cells with IL-3, incubated overnight, read-out: Prolif BaF3 + IL3 (IC50)
[5] = Mus musculus, BaF3, BaF3 parental cells with IL-3, incubated overnight, read-out: Prolif BaF3 IL3 (IC50)
[6] = BaF3 parental cells with IL-3, incubated overnight, read-out: Prolif BaF3 + IL3 (IC50)

PIM1, sequence (P11309 whole entry): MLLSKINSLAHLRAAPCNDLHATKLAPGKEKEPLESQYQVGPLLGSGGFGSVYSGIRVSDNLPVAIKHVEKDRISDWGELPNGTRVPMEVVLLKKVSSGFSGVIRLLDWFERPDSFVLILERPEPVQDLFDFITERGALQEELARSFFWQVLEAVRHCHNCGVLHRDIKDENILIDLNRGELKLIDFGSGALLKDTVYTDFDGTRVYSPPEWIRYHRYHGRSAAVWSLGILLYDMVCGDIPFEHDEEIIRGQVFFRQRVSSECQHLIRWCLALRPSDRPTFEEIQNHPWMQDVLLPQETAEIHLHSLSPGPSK

Structure (SMILES)	EC50 ([2]; Homo sapiens, MM1.S, 72 h)	Ki [3]	further results
COC1CCN(c2c(NC(=O)c3nc(-c4ncccc4F)sc3N)cnn2C)CCC1N (racemic) [Example 323, 5-amino-N-[5-(4-amino-5-methoxy-azepan-1-yl)-1-methyl-pyrazol-4-yl]-2-(3-fluoro-2-pyridyl)thiazole-4-carboxamide]	165 nM		IC50 [1, 4]: > 25000 nM
Cn1ncc(NC(=O)c2nc(-c3c(F)cccc3F)sc2N)c1N1CCCC(C)(N)CC1 (racemic) [Example 411, 5-amino-N-[5-(4-amino-4-methyl-azepan-1-yl)-1-methyl-pyrazol-4-yl]-2-(2,6-difluorophenyl)thiazole-4-carboxamide]	1800 nM		IC50 [1, 4]: 17700 nM
Cn1ncc(NC(=O)c2nc(-c3ccccc3F)sc2N)c1N1CC[C@@H](N)[C@H](F)CC1 (single isomer, unassigned) [Example 230]	1300 nM		IC50 [1, 5]: 18100 nM
Cn1ncc(NC(=O)c2nc(-c3c(F)cccc3F)sc2N)c1N1CCC(N)C(O)CC1 (single isomer, unassigned) [Example 327, 5-amino-N-[5-(4-amino-5-hydroxy-azepan-1-yl)-1-methyl-pyrazol-4-yl]-2-(2,6-difluorophenyl)thiazole-4-carboxamide]			IC50 [1, 4]: > 25000 nM; EC50 ([2]; 72 hours): 14700 nM
Cn1ncc(NC(=O)c2nc(-c3c(F)cccc3F)sc2N)c1N1CCC(N)C(O)CC1 (single isomer, unassigned) [Example 328, 5-amino-N-[5-(4-amino-5-hydroxy-azepan-1-yl)-1-methyl-pyrazol-4-yl]-2-(2,6-difluorophenyl)thiazole-4-carboxamide]			IC50 [1, 6]: > 25000 nM; EC50 ([2]; 72 hours): 11500 nM
Cn1ncc(NC(=O)c2nc(-c3c(F)cccc3F)sc2N)c1N1CCC(N)C(O)CC1 (single isomer, unassigned) [Example 333, 5-amino-N-[5-(4-amino-5-hydroxy-azepan-1-yl)-1-methyl-pyrazol-4-yl]-2-(2,6-difluorophenyl)thiazole-4-carboxamide]			IC50 [1, 6]: > 25000 nM
Cn1ncc(NC(=O)c2nc(-c3c(F)cccc3F)sc2N)c1N1CCC(N)C(O)CC1 (single isomer, unassigned) [Example 337, 5-amino-N-[5-(4-amino-5-hydroxy-azepan-1-yl)-1-methyl-pyrazol-4-yl]-2-(2,6-difluorophenyl)thiazole-4-carboxamide]			IC50 [1, 6]: 25000 nM; EC50 ([2]; 72 hours): 30.8 nM
COC1(C)CC(N)CCN(c2c(NC(=O)c3nc(-c4c(F)cccc4F)sc3N)cnn2C)C1 (single isomer, unassigned) [Example 352, 5-amino-N-[5-(5-amino-3-methoxy-3-methyl-azepan-1-yl)-1-methyl-pyrazol-4-yl]-2-(2,6-difluorophenyl)thiazole-4-carboxamide]			IC50 [1, 6]: 10400 nM; EC50 ([2]; 72 hours): 8.69 nM
CCn1ncc(NC(=O)c2nc(-c3c(F)cccc3F)sc2N)c1N1CCC(N)C(F)CC1 (single isomer, unassigned) [Example 370, 5-amino-N-[5-(4-amino-5-fluoro-azepan-1-yl)-1-ethyl-pyrazol-4-yl]-2-(2,6-difluorophenyl)thiazole-4-carboxamide]	118 nM	0.093 nM	
Cn1ncc(NC(=O)c2nc(-c3c(F)cccc3F)sc2N)c1C1CC[C@@H](N)[C@@H](F)CC1 (single isomer, unassigned) [Example 381]	3500 nM		
CCn1ncc(NC(=O)c2nc(-c3c(F)cccc3F)sc2N)c1N1CCC(N)C(OC)CC1 (single isomer, unassigned) [Example 390, 5-amino-N-[5-(4-amino-5-methoxy-azepan-1-yl)-1-ethyl-pyrazol-4-yl]-2-(2,6-difluorophenyl)thiazole-4-carboxamide]		0.192 nM	EC50 ([2]; 72 hours): 147 nM
Cn1ncc(NC(=O)c2nc(-c3c(F)cccc3F)sc2N)c1N1CCC2NCCOC2CC1 (single isomer, unassigned) [Example 397, N-[5-(3,4,4a,5,6,8,9,9a-octahydro-2H-[1,4]oxazino[2,3-d]azepin-7-yl)-1-methyl-pyrazol-4-yl]-5-amino-2-(2,6-difluorophenyl)thiazole-4-carboxamide]	6400 nM		
Nc1sc(-c2c(F)cccc2F)nc1C(=O)Nc1cnn(CC(F)F)c1N1CCC(N)C(O)CC1 (single isomer, unassigned) [Example 398, 5-amino-N-[5-(4-amino-5-hydroxy-azepan-1-yl)-1-(2,2-difluoroethyl)pyrazol-4-yl]-2-(2,6-difluorophenyl)thiazole-4-carboxamide]		0.142 nM	EC50 ([2]; 72 hours): 5700 nM
Nc1sc(-c2c(F)cccc2F)nc1C(=O)Nc1cnn(CC(F)F)c1N1CCC(N)C(O)CC1 (single isomer, unassigned) [Example 399, 5-amino-N-[5-(4-amino-5-hydroxy-azepan-1-yl)-1-(2,2-difluoroethyl)pyrazol-4-yl]-2-(2,6-difluorophenyl)thiazole-4-carboxamide]		0.018 nM	EC50 ([2]; 72 hours): 41.9 nM
Cn1ncc(NC(=O)c2nc(-c3c(F)cccc3F)sc2N)c1N1CCC(N)C(C(F)F)CC1 (single isomer, unassigned) [Example 511, 5-amino-N-[5-[4-amino-5-(difluoromethyl)azepan-1-yl]-1-methyl-pyrazol-4-yl]-2-(2,6-difluorophenyl)thiazole-4-carboxamide]			IC50 [1, 4]: 24300 nM
CO[C@H]1CCN(c2c(NC(=O)c3nc(-c4c(F)cccc4F)sc3N)cnn2C2CC2)CC[C@@H]1N [Example 365, 5-amino-N-(5-((4S,5S)-4-amino-5-methoxyazepan-1-yl)-1-cyclopropyl-1H-pyrazol-4-yl)-2-(2,6-difluorophenyl)thiazole-4-carboxamide]	606 nM	0.219 nM	
Nc1sc(-c2c(F)cccc2F)nc1C(=O)Nc1cnn(CC(F)F)c1N1CC[C@@H](O)[C@@H](N)CC1 [Example 375, 5-amino-N-(5-((4S,5R)-4-amino-5-hydroxyazepan-1-yl)-1-(2,2-difluoroethyl)-1H-pyrazol-4-yl)-2-(2,6-difluorophenyl)thiazole-4-carboxamide]	70.6 nM	0.051 nM	
CCOC1CCN(c2c(NC(=O)c3nc(-c4c(F)cccc4F)sc3N)cnn2C)CCC1N (stereo not shown) [Example 385, 5-amino-N-[5-(4-amino-5-ethoxy-azepan-1-yl)-1-methyl-pyrazol-4-yl]-2-(2,6-difluorophenyl)thiazole-4-carboxamide]			EC50 ([2]; 72 hours): 182 nM
Cn1ncc(NC(=O)c2nc(-c3ncccc3F)sc2N)c1N1CC[C@@H](F)[C@@H](N)CC1 [Example 388, 5-amino-N-(5-((4S,5R)-4-amino-5-fluoroazepan-1-yl)-1-methyl-1H-pyrazol-4-yl)-2-(3-fluoropyridin-2-yl)thiazole-4-carboxamide]	396 nM	0.462 nM	
CCn1ncc(NC(=O)c2nc(-c3ccccc3F)sc2N)c1N1CCC(N)C(OC)CC1 (stereo not shown) [Example 392, 5-amino-N-[5-(4-amino-5-methoxy-azepan-1-yl)-1-ethyl-pyrazol-4-yl]-2-(2-fluorophenyl)thiazole-4-carboxamide]	202 nM	0.668 nM	
CC(=O)O[C@H]1CCN(c2c(NC(=O)c3nc(-c4c(F)cccc4F)sc3N)cnn2C)CC[C@H]1N [Example 487, [(4S,5R)-5-amino-1-[4-[[5-amino-2-(2,6-difluorophenyl)thiazole-4-carbonyl]amino]-2-methyl-pyrazol-3-yl]azepan-4-yl]acetate]			IC50 [1, 4]: 20100 nM
Cn1ncc(NC(=O)c2nc(-c3c(F)cccc3F)sc2N)c1N1CC[C@@H]2OC(=O)N[C@]2(C)CC1 [Example 509, 5-amino-2-(2,6-difluorophenyl)-N-(1-methyl-5-((3aR,8aS)-3a-methyl-2-oxotetrahydro-2H-oxazolo[5,4-d]azepin-6(7H,8H,8aH)-yl)-1H-pyrazol-4-yl)thiazole-4-carboxamide]			IC50 [1, 4]: > 25000 nM

Now from value to compound, other results behind:

EC50 ([2]; Homo sapiens, MM1.S, 72 h)	Ki [3]	Structure (SMILES)	further results
3000 nM		Cn1ncc(NC(=O)c2nc(-c3c(F)cccc3F)sc2N)c1N1CCC[C@H](N)[C@@H](F)C1 (single isomer, unassigned) [Example 158]	IC50 [1, 5]: 11600 nM
1300 nM		Cn1ncc(NC(=O)c2nc(-c3c(F)cccc3F)sc2N)c1N1CCC(O)CC(F)(F)C1 (single isomer, unassigned) [Example 371, 5-amino-N-[5-(3,3-difluoro-5-hydroxy-azepan-1-yl)-1-methyl-pyrazol-4-yl]-2-(2,6-difluorophenyl)thiazole-4-carboxamide]	
68.4 nM		Cn1ncc(NC(=O)c2nc(-c3c(F)cccc3F)sc2N)c1N1CC[C@@H](N)[C@H](F)CC1 [Example 139, 5-amino-N-(5-((4R,5R)-4-amino-5-fluoroazepan-1-yl)-1-methyl-1H-pyrazol-4-yl)-2-(2,6-difluorophenyl)thiazole-4-carboxamide]	
	0.212 nM	COC1(C)CC(N)CCN(c2c(NC(=O)c3nc(-c4ccncc4F)sc3N)cnn2C)C1 (stereo not shown) [Example 475, 5-amino-N-[5-(5-amino-3-methoxy-3-methyl-azepan-1-yl)-1-methyl-pyrazol-4-yl]-2-(3-fluoro-4-pyridyl)thiazole-4-carboxamide]	
5700 nM		CO[C@@H]1[C@H](N)CCN(c2c(NC(=O)c3nc(-c4c(F)cccc4F)sc3N)cnn2C)CC12CC2 [Example 516, 5-amino-N-(5-((8R,9S)-8-amino-9-methoxy-5-azaspiro[2.6]nonan-5-yl)-1-methyl-1H-pyrazol-4-yl)-2-(2,6-difluorophenyl)thiazole-4-carboxamide]	

Source: patent US8614206B2 (Genentech, Inc., priority 2011, dated 2013)
